Legend:
Experiment in all cases: relative viability (nuclei count vs DMSO), 5 days (fraction); higher = more cells survive
Veliparib + Navitoclax = compound: C[C@]1(c2nc3c(C(N)=O)cccc3[nH]2)CCCN1 [Veliparib] + CC1(C)CCC(c2ccc(Cl)cc2)=C(CN2CCN(c3ccc(C(=O)NS(=O)(=O)c4ccc(N[C@H](CCN5CCOCC5)CSc5ccccc5)c(S(=O)(=O)C(F)(F)F)c4)cc3)CC2)C1 [Navitoclax] (partner 0.5 µM)
Procedure, shortened: (§1)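 Each reported value is a median over duplicate plates. It expresses relative viability: treated-well nuclei count divided by vehicle-well nuclei count. Lung cancer cell lines in 1536-well plates were dosed by pin tool a day after seeding, alone with one drug or with a fixed anchor-drug dose plus five library-drug doses (not always all listed) in √10 steps, and nuclei were counted after 5 days.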

Veliparib + Decitabine = compound: C[C@]1(c2nc3c(C(N)=O)cccc3[nH]2)CCCN1 [Veliparib] + Nc1ncn([C@H]2C[C@H](O)[C@@H](CO)O2)c(=O)n1 [Decitabine] (partner 2 µM)
Procedure, shortened: as §1

[1] = compound: COC1=CC=C(C=C1)CN2C=CC3=C2C=C(C=C3)C(=O)NO + Nc1ncn([C@H]2C[C@H](O)[C@@H](CO)O2)c(=O)n1 [Decitabine] (partner 2 µM)
Procedure, shortened: as §1

[2] = compound: COC1=CC=C(C=C1)CN2C=CC3=C2C=C(C=C3)C(=O)NO + COc1cc2c(Oc3ccc(NC(=O)C4(C(=O)Nc5ccc(F)cc5)CC4)cc3F)ccnc2cc1OCCCN1CCOCC1 [Foretinib] (partner 0.25 µM)
Procedure, shortened: as §1

Cell Line	relative viability (Veliparib + Navitoclax; first compound 0.02 µM)	relative viability (Veliparib + Navitoclax; first compound 0.06325 µM)	relative viability (Veliparib + Navitoclax; first compound 0.2 µM)	relative viability (Veliparib + Navitoclax; first compound 0.6325 µM)	relative viability (Veliparib + Navitoclax; first compound 2 µM)	relative viability (Veliparib + Decitabine; first compound 0.02 µM)	relative viability (Veliparib + Decitabine; first compound 0.06325 µM)	relative viability (Veliparib + Decitabine; first compound 0.2 µM)	relative viability (Veliparib + Decitabine; first compound 0.6325 µM)	relative viability (Veliparib + Decitabine; first compound 2 µM)	relative viability ([1]; first compound 0.08 µM)	relative viability ([1]; first compound 0.253 µM)	relative viability ([1]; first compound 0.8 µM)	relative viability ([1]; first compound 2.53 µM)	relative viability ([1]; first compound 8 µM)	relative viability ([2]; first compound 0.08 µM)	relative viability ([2]; first compound 0.253 µM)	relative viability ([2]; first compound 0.8 µM)	relative viability ([2]; first compound 2.53 µM)	relative viability ([2]; first compound 8 µM)
COR-L23	1.15	0.957	0.899	0.86	0.999	0.406	0.315	0.255	0.287	0.289	0.378	0.465	0.456	0.407	0.357	0.741	0.992	0.985	0.99	0.945
COR-L 105	0.688	0.817	0.712	0.615	0.928	0.634	0.66	0.744	0.59	0.599	0.515	0.618	0.752	0.601	0.604	0.681	1.43	0.853	1.08	0.212
ChaGo-K-1	–	0.833	1.08	1.06	0.85	0.446	0.453	0.411	0.439	0.422	–	0.502	0.526	0.525	0.488	–	0.932	0.898	0.802	0.869
EKVX	0.814	0.974	0.884	0.891	0.819	–	0.319	0.364	0.338	0.294	–	0.327	0.378	0.372	0.415	0.542	0.555	0.801	0.762	0.849
EMC-BAC-2	1.2	1.18	1.15	1.14	1.08	0.997	–	0.936	0.874	0.984	0.606	–	1.02	0.968	0.876	0.788	1.03	0.98	0.977	0.922
EPLC-272H	–	1.08	0.999	1.22	1.16	–	0.312	0.387	0.331	0.393	–	0.407	0.385	0.457	0.378	0.293	–	0.653	0.704	0.662
H3255	0.479	0.445	0.537	0.477	0.518	0.615	0.538	0.713	0.567	0.589	0.565	0.551	0.627	0.55	0.567	0.92	0.702	0.821	0.89	0.398
HARA	1.17	1.09	1.1	1.08	1.15	0.565	–	0.47	0.499	0.311	–	0.493	0.6	0.587	0.534	–	0.868	0.958	0.826	0.55
HCC-15	0.723	0.702	0.719	0.721	0.65	0.572	0.56	0.589	0.562	0.502	0.529	0.718	0.742	0.714	0.642	0.642	1.02	1	1.03	1.01
